# Biological target: ανβ6 (Homo sapiens, UniProt P06756+P18564)
# Experiment: Cell adhesion assay, αvβ6 integrin
# Type: cell-based
# Settings: cell adhesion data; read-out: ανβ6 IC50
# Description: The assays were performed as described in the literature (P. A. Procopiou, N. A. Anderson, J. Barrett, T. N. Barrett, M. H. J. Crawford, B. J. Fallon, A. P. Hancock, J. Le, S. Lemma, R. P. Marshall, J. Morrell, J. M. Pritchard, J. E. Rowedder, P. Saklatvala, R. J. Slack, S. L. Sollis, C. J. Suckling, L. R. Thorp, G. Vitulli, et al., J. Med. Chem. 2018, 61, 8417-8443; S. B. Ludbrook, S. T. Barry, C. J. Delves, C. M. T. Horgan, Biochem. J. 2003, 369, 311-318).
# ανβ6, sequence (P06756 31-889 limits assumed): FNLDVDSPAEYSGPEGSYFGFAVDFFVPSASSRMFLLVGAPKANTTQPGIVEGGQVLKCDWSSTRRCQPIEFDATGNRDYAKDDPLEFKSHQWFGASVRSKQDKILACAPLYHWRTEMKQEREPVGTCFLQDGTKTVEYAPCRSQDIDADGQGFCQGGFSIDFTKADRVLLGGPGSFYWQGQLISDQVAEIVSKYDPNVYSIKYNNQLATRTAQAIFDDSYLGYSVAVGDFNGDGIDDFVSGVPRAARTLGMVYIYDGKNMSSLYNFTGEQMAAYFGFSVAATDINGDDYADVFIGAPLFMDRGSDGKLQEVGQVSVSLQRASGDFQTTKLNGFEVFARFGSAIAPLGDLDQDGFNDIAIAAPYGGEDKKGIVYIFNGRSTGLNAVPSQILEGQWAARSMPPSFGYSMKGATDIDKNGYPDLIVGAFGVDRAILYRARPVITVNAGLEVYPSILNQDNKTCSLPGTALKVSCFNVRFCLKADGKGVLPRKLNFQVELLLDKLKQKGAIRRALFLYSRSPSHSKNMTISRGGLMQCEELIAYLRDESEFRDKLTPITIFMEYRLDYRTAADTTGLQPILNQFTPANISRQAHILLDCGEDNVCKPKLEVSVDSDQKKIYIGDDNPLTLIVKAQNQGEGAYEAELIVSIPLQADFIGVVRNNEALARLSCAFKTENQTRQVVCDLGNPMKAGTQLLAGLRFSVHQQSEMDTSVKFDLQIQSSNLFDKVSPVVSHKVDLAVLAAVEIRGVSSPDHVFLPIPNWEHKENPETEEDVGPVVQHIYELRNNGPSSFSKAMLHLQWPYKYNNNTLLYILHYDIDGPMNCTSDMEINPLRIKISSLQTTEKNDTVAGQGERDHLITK
# ανβ6, sequence (P06756 891-1048 limits assumed): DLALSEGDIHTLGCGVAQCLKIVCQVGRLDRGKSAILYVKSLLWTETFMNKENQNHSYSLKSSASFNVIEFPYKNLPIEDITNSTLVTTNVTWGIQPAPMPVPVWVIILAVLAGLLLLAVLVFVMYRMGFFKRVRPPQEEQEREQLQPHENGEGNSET
# ανβ6, sequence (P18564 22-788): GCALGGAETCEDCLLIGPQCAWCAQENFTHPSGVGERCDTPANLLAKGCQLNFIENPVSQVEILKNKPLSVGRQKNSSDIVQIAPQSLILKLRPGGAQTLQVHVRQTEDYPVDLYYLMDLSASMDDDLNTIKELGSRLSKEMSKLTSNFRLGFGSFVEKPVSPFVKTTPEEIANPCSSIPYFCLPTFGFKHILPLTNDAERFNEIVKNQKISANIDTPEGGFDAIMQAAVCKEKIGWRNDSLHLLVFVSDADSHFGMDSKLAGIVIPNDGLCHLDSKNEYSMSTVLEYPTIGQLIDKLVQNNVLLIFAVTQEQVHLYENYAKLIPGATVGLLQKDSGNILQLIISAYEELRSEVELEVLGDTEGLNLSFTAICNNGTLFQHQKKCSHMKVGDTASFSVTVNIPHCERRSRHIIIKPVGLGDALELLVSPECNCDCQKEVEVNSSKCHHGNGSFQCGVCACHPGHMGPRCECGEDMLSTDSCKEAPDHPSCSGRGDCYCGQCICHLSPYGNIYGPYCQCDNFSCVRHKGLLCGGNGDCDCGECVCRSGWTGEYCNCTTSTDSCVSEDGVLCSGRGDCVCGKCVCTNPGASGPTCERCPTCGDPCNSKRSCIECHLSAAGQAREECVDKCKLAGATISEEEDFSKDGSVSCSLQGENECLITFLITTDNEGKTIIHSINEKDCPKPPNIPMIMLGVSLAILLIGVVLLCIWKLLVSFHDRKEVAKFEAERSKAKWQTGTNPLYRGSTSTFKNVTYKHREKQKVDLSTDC
row,SMILES,IC50
1,"Cn1cnc(S(=O)(=O)N2CC(C(=O)NC(CNC(=O)CCCCc3ccc4c(n3)NCCC4)C(=O)O)C2)c1 (racemic) [Example 18, 2-(1-((1-methyl-1H-imidazol-4-yl)sulfonyl)azetidine-3-carboxamido)-3-(5-(5,6,7,8-tetrahydro-1,8-naphthyridin-2-yl)pentanamido) propanoic acid]",< 250 nM
2,"Cn1cc(S(=O)(=O)N2CC(C(=O)NC(CNC(=O)CCCCc3ccc4c(n3)NCCC4)C(=O)O)C2)cn1 (racemic) [Example 19, 2-(1-((1-methyl-1H-pyrazol-4-yl)sulfonyl)azetidine-3-carboxamido)-3-(5-(5,6,7,8-tetrahydro-1,8-naphthyridin-2-yl)pentanamido)propanoic acid]",< 250 nM
3,"O=C(CCCCc1ccc2c(n1)NCCC2)NCC(NC(=O)C1CN(S(=O)(=O)c2ccc(Cl)s2)C1)C(=O)O (racemic) [Example 20, 2-(1-((5-chlorothiophen-2-yl)sulfonyl)azetidine-3-carboxamido)-3-(5-(5,6,7,8-tetrahydro-1,8-naphthyridin-2-yl)pentanamido)propanoic acid]",< 250 nM
4,"O=C(CCCCc1ccc2c(n1)NCCC2)NCC(NC(=O)C1CN(S(=O)(=O)c2cccnc2)C1)C(=O)O (racemic) [Example 21, 2-(1-(pyridin-3-ylsulfonyl)azetidine-3-carboxamido)-3-(5-(5,6,7,8-tetrahydro-1,8-naphthyridin-2-yl)pentanamido)propanoic acid]",< 250 nM
5,"Cc1nc(S(=O)(=O)N2CC(C(=O)NC(CNC(=O)CCCCc3ccc4c(n3)NCCC4)C(=O)O)C2)cn1C (racemic) [Example 22, 2-(1-((1,2-dimethyl-1H-imidazol-4-yl)sulfonyl)azetidine-3-carboxamido)-3-(5-(5,6,7,8-tetrahydro-1,8-naphthyridin-2-yl)pentanamido)propanoic acid]",< 250 nM
6,"O=C(CCCCc1ccc2c(n1)NCCC2)NC[C@H](NC(=O)C1CN(S(=O)(=O)c2cc(Cl)cc(Cl)c2)C1)C(=O)O [Example 23, (S)-2-(1-(3,5-Dichlorobenzenesulfonyl)azetidine-3-carboxamido)-3-(5-(5,6,7,8-tetrahydro-1,8-naphthyridin-2-yl)pentanamido)propanoic acid]",< 250 nM
7,"Cc1cc(C)cc(S(=O)(=O)N2CC(C(=O)N[C@@H](CNC(=O)CCCCc3ccc4c(n3)NCCC4)C(=O)O)C2)c1 [Example 24, (S)-2-(1-(3,5-Dimethylbenzenesulfonyl)azetidine-3-carboxamido)-3-(5-(5,6,7,8-tetrahydro-1,8-naphthyridin-2-yl)pentanamido)propanoic acid]",< 250 nM
8,"Cc1cc(Cl)cc(S(=O)(=O)N2CC(C(=O)N[C@@H](CNC(=O)CCCCc3ccc4c(n3)NCCC4)C(=O)O)C2)c1 [Example 25, (S)-2-(1-(3-Chloro-5-methylbenzenesulfonyl)azetidine-3-carboxamido)-3-(5-(5,6,7,8-tetrahydro-1,8-naphthyridin-2-yl)pentanamido)propanoic acid]",< 250 nM
9,"CCc1cccc(S(=O)(=O)N2CC(C(=O)N[C@@H](CNC(=O)CCCCc3ccc4c(n3)NCCC4)C(=O)O)C2)c1 [Example 26, (S)-2-(1-(3-Ethylbenzenesulfonyl)azetidine-3-carboxamido)-3-(5-(5,6,7,8-tetrahydro-1,8-naphthyridin-2-yl)pentanamido)propanoic acid]",< 250 nM
10,"O=C(CCCCc1ccc2c(n1)NCCC2)NC[C@H](NC(=O)C1CN(S(=O)(=O)c2cccc(Cl)c2)C1)C(=O)O [Example 27, (S)-2-(1-(3-Chlorobenzenesulfonyl)azetidine-3-carboxamido)-3-(5-(5,6,7,8-tetrahydro-1,8-naphthyridin-2-yl)pentanamido)propanoic acid]",< 250 nM
11,"COc1cccc(S(=O)(=O)N2CC(C(=O)N[C@@H](CNC(=O)CCCCc3ccc4c(n3)NCCC4)C(=O)O)C2)c1 [Example 28, (S)-2-(1-(3-Methoxybenzenesulfonyl)azetidine-3-carboxamido)-3-(5-(5,6,7,8-tetrahydro-1,8-naphthyridin-2-yl)pentanamido)propanoic acid]",< 250 nM

# Continued, values first:
row,IC50,SMILES
1,< 250 nM,"Cc1ccc(S(=O)(=O)N2CC(C(=O)NC(CNC(=O)CCCCc3ccc4c(n3)NCCC4)C(=O)O)C2)cc1 (racemic) [Example 1, 3-(5-(5,6,7,8-tetrahydro-1,8-naphthyridin-2-yl)pentanamido)-2-(1-(4-methylbenzenesulfonyl)azetidine-3-carboxamido)propanoic acid]"
2,< 250 nM,"O=C(CCCCc1ccc2c(n1)NCCC2)NCC(NC(=O)C1CN(S(=O)(=O)c2ccc(F)cc2)C1)C(=O)O (racemic) [Example 2, 2-(1-(4-fluorobenzenesulfonyl)azetidine-3-carboxamido)-3-(5-(5,6,7,8-tetrahydro-1,8-naphthyridin-2-yl)pentanamido)propanoic acid]"
3,< 250 nM,"Cc1ccccc1S(=O)(=O)N1CC(C(=O)NC(CNC(=O)CCCCc2ccc3c(n2)NCCC3)C(=O)O)C1 (racemic) [Example 3, 3-(5-(5,6,7,8-tetrahydro-1,8-naphthyridin-2-yl)pentanamido)-2-(1-(2-methylbenzenesulfonyl)azetidine-3-carboxamido)propanoic acid]"
4,< 250 nM,"Cc1cccc(S(=O)(=O)N2CC(C(=O)NC(CNC(=O)CCCCc3ccc4c(n3)NCCC4)C(=O)O)C2)c1 (racemic) [Example 4, 3-(5-(5,6,7,8-tetrahydro-1,8-naphthyridin-2-yl)pentanamido)-2-(1-(3-methylbenzenesulfonyl)azetidine-3-carboxamido)propanoic acid]"
5,< 250 nM,"O=C(CCCCc1ccc2c(n1)NCCC2)NCC(NC(=O)C1CN(S(=O)(=O)c2cccc(F)c2)C1)C(=O)O (racemic) [Example 5, 2-(1-(3-fluorobenzenesulfonyl)azetidine-3-carboxamido)-3-(5-(5,6,7,8-tetrahydro-1,8-naphthyridin-2-yl)pentanamido)propanoic acid]"
6,< 250 nM,"O=C(CCCCc1ccc2c(n1)NCCC2)NCC(NC(=O)C1CN(S(=O)(=O)c2cccc(C(F)(F)F)c2)C1)C(=O)O (racemic) [Example 7, 3-(5-(5,6,7,8-tetrahydro-1,8-naphthyridin-2-yl)pentanamido)-2-(1-(3-(trifluoromethyl)benzenesulfonyl)azetidine-3-carboxamido)propanoic acid]"
7,< 250 nM,"O=C(CCCCc1ccc2c(n1)NCCC2)NCC(NC(=O)C1CN(S(=O)(=O)c2cccc(OC(F)(F)F)c2)C1)C(=O)O (racemic) [Example 8, 3-(5-(5,6,7,8-tetrahydro-1,8-naphthyridin-2-yl)pentanamido)-2-(1-(3-(trifluoromethoxy)benzenesulfonyl)azetidine-3-carboxamido)propanoic acid]"
8,< 250 nM,"O=C(CCCCc1ccc2c(n1)NCCC2)NCC(NC(=O)C1CN(S(=O)(=O)c2ccccc2)C1)C(=O)O (racemic) [Example 9, 2-(1-(phenylsulfonyl)azetidine-3-carboxamido)-3-(5-(5,6,7,8-tetrahydro-1,8-naphthyridin-2-yl)pentanamido)propanoic acid]"
9,< 250 nM,"O=C(CCCCc1ccc2c(n1)NCCC2)NCC(NC(=O)C1CN(S(=O)(=O)c2cc(Cl)cc(Cl)c2)C1)C(=O)O (racemic) [Example 10, 2-(1-(3,5-dichlorobenzenesulfonyl)azetidine-3-carboxamido)-3-(5-(5,6,7,8-tetrahydro-1,8-naphthyridin-2-yl)pentanamido)propanoic acid]"
10,< 250 nM,"Cc1cc(C)cc(S(=O)(=O)N2CC(C(=O)NC(CNC(=O)CCCCc3ccc4c(n3)NCCC4)C(=O)O)C2)c1 (racemic) [Example 11, 2-(1-(3,5-dimethylbenzenesulfonyl)azetidine-3-carboxamido)-3-(5-(5,6,7,8-tetrahydro-1,8-naphthyridin-2-yl)pentanamido)propanoic acid]"
11,< 250 nM,CS(=O)(=O)c1cccc(S(=O)(=O)N2CC(C(=O)NC(CNC(=O)CCCCc3ccc4c(n3)NCCC4)C(=O)O)C2)c1 (racemic) [Example 12]
12,< 250 nM,"Cc1cc(Cl)cc(S(=O)(=O)N2CC(C(=O)NC(CNC(=O)CCCCc3ccc4c(n3)NCCC4)C(=O)O)C2)c1 (racemic) [Example 13, 2-(1-(3-chloro-5-methylbenzenesulfonyl)azetidine-3-carboxamido)-3-(5-(5,6,7,8-tetrahydro-1,8-naphthyridin-2-yl)pentanamido)propanoic acid]"
13,< 250 nM,"CCc1cccc(S(=O)(=O)N2CC(C(=O)NC(CNC(=O)CCCCc3ccc4c(n3)NCCC4)C(=O)O)C2)c1 (racemic) [Example 14, 2-(1-(3-ethylbenzenesulfonyl)azetidine-3-carboxamido)-3-(5-(5,6,7,8-tetrahydro-1,8-naphthyridin-2-yl)pentanamido)propanoic acid]"
14,< 250 nM,"Cc1cccc(S(=O)(=O)N2CC(C)(C(=O)NC(CNC(=O)CCCCc3ccc4c(n3)NCCC4)C(=O)O)C2)c1 (racemic) [Example 15, 2-(3-methyl-1-(3-methylbenzenesulfonyl)azetidine-3-carboxamido)-3-(5-(5,6,7,8-tetrahydro-1,8-naphthyridin-2-yl)pentanamido)propanoic acid]"
15,< 250 nM,"CCC1(C(=O)NC(CNC(=O)CCCCc2ccc3c(n2)NCCC3)C(=O)O)CN(S(=O)(=O)c2cccc(C)c2)C1 (racemic) [Example 16, 2-(3-ethyl-1-(3-methylbenzenesulfonyl)azetidine-3-carboxamido)-3-(5-(5,6,7,8-tetrahydro-1,8-naphthyridin-2-yl)pentanamido)propanoic acid]"
16,< 250 nM,"Cc1cccc(S(=O)(=O)N2CC(F)(C(=O)NC(CNC(=O)CCCCc3ccc4c(n3)NCCC4)C(=O)O)C2)c1 (racemic) [Example 17, 2-(3-fluoro-1-(3-methylbenzenesulfonyl)azetidine-3-carboxamido)-3-(5-(5,6,7,8-tetrahydro-1,8-naphthyridin-2-yl)pentanamido)propanoic acid]"
